Measurements as given in US20090239884A1, “Methods of Treating Inflammation” (priority 2006, published 2009).

Key:
[1] = test system: peripheral blood mononuclear cells; settings: cited from earlier work
[2] = test system: bEnd.3 cells; assay: intracellular cAMP ELISA in bEnd.3 cells; assay type: cell-based, mouse; settings: DP 100 μM, IBMX 300 μM; for cAMP levels in bEnd.3 cells: 45 minutes
Procedure: Intracellular cAMP ELISAs. Activated bEnd.3 cells were treated as described above for 20, 45, or 90 minutes. cAMP levels were determined with a Correlate cAMP ELISA kit (Assay Designs, Ann Arbor, Mich.) using an ELISA reader (Bio-Rad, Hercules, Calif.) at 405 nm.
In FIG. 23B, IBMX (300 μM), DP (100 μM), or vehicle (0.1% DMSO) were added to the bEnd.3 cells for the final 20, 45, and 90 minutes of TNF-α exposure and the cellular cAMP content analyzed by ELISA. The values are given as the mean±SEM of an experiment run in duplicate with the results representative of 2 independent experiments (*p<0.05, **p<0.001; one way ANOVA followed by Bonferroni t-test for comparisons between vehicle and DP or IBMX and an unpaired t-test for comparisons between DP and IBMX).

[3] = test system: Con A-stimulated mouse splenocytes; assay: transwell chemotaxis assay in response to CXCL12, Con A-stimulated splenocytes; assay type: cell-based; settings: Mus musculus, Splenocyte, 4 h; read-out: inhibition of CXCL12-induced migration
Procedure: (§1) Isolation of murine splenocytes. Splenocytes were isolated from 6-8 week old C57BL/6 mice obtained from Jackson Laboratories (Bar Harbor, Me.). Spleens were removed and a single-cell suspension prepared using 40 μm cell strainers (Fisher Scientific). Cells were washed with RPMI 1640 medium supplemented with 5% fetal bovine serum, 2 mM L-glutamine, 100 U/ml penicillin and […] (all from GIBCO). Red blood cells were lysed using standard lysis buffer (0.15M NH4Cl, 10mM KHCO3, 0.1 mM EDTA PH 7.4). Cells were then washed and used in chemotaxis assays either as unstimulated cells or after stimulation with Con A ([…]) as indicated.
(§2) Preparation of Test Reagents. […] This concentration of DMSO had no effect on migration of splenocytes in the presence or absence of CXCL12. CXCL12 was prepared as a 100 μg/ml stock solution in PBS+0.1% BSA, Con A was prepared as a stock of 2.5 mg/ml in PBS, and dibutyryl cAMP and Rp-cAMPS were prepared as 50 mM stock solutions in water, and these reagents were diluted directly into the chemotaxis assays.
(§3) Chemotaxis Assay. Chemotaxis assays were done in 24-well transwell plates with a pore size of 5 μm (Costar, Corning). Splenocytes were placed in medium at a concentration of 3×10^6 cells/ml. Where test agents were used, splenocytes were pretreated with the agent or vehicle for 45 to 60 min, following which 100 μl of the splenocyte suspension was placed into the upper chamber of transwell plates, and the lower chamber was filled with 600 μl of medium. When added to induce migration, CXCL12 (250 ng/ml) was added to the lower chamber only. Other test reagents were added as indicated to both the upper and lower chambers. After 4 hours of incubation at 37° C. in 5% CO2, transwell inserts were gently removed and the number of cells that migrated into the lower chamber were counted by withdrawing 500 μl of lower chamber medium, mixing it with 10 ml of buffer and counting the cells on a Coulter Counter (Beckman Coulter Z series). Where results are expressed as % of CXCL12-stimulated migration, this was calculated as follows: (cells migrated in presence of CXCL12 and test reagent—cells migrated in medium alone)/(cells migrated in presence of CXCL12-cells migrated in medium alone)×100. Experimental points for all chemotaxis assays were performed in triplicate.
(§4) Splenocytes isolated from mice were assayed for migration in response to CXCL12 (250 ng/ml), either directly (unstimulated) or following 48 hr of incubation with 3 μg/ml Con A (stimulated), as described in Methods. To test for effects of dibutyryl cAMP, cells were pretreated with dibutyryl cAMP (500 μM) for 45-60 min prior to beginning the chemotaxis assay, and the assays were conducted with dibutyryl cAMP (db-cAMP) present (500 μM) in both the upper and lower chambers of the transwell plates. Data plotted are derived from a single experiment performed in triplicate. *p<0.001; **p<0.02.

[4] = test system: bEnd.3 endothelial cells; assay: qRT-PCR gene expression in TNF-α activated bEnd.3 endothelial cells; assay type: cell-based, mouse; settings: DP 100 μM
Procedure: Quantitative real-time RT-PCR analysis. 10 ng cDNA, or 2 μl cDNA for LCM studies, was amplified by qRT-PCR in a 25 μl reaction using SYBR Green PCR Master Mix (Applied Biosystems, Foster City, Calif.). Primers were designed using Primer Express software v3.0 and primer efficiency verified by slope analysis to be 100%±2.5%. qRT-PCR was performed using an ABI 7500 fast system and data analyzed using the Δ^ct method (SDS software v3.0). Amplicon sizes were approximately 100 bp.
Cell treatment. Confluent bEnd.3 monolayers were incubated with 200 ng/ml TNF-α (Peprotech, Rocky Hill, N.J.) at 37° c. for 2 hours. […] Christoff Zitt and Armin Hatzelmann (Altana Pharma, Konstanz, Germany). Con A-activated splenocytes or CD4^+CD25^− T cells activated with plate-bound anti-CD3 mAb were treated with the same reagents for 20, 45, or 90 minutes.
In FIG. 23A, bEnd.3 endothelial cells were activated for 2 hours with TNF-α (200 ng/ml) and (A) DP (100 μM) or vehicle (0.1% DMSO) for the final 45 minutes. PDE gene expression was then analyzed by qRT-PCR and the data presented as the mean+SEM of 3 independent experiments assayed in triplicate (*p<0.05, **p<0.001; unpaired t-test).
The data are shown as a mean±SEM percentage of vehicle control and represent 3 independent experiments assayed in triplicate (*p<0.05, * *p<0.001; unpaired t-test).

[5] = molecular target: Y748F mutant of PDE8A catalytic domain (Homo sapiens, UniProt O60658, Y748F); settings: cited from earlier work
Y748F mutant of PDE8A catalytic domain, sequence (O60658 480-820 Y748F limits assumed): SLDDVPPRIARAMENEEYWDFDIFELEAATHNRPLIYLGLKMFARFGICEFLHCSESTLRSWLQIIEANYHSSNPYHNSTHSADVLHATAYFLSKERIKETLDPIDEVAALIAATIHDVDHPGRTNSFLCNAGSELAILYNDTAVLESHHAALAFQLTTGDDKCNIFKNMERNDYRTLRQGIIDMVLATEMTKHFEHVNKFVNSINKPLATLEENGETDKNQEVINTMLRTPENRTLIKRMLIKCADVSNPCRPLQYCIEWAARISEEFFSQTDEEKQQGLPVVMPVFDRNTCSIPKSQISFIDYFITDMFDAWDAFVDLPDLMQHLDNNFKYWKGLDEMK

[6] = molecular target: PDE8A1 catalytic domain (Homo sapiens, UniProt O60658); settings: wild type; cited from earlier work
PDE8A1 catalytic domain, sequence (O60658 480-820 limits assumed): as the sequence (O60658 480-820 Y748F limits assumed) above, with F269Y counted along it

[7] = test system: PDE8A; settings: expressed forms of PDE8A; read-out: reported IC50s, PDE8A; cited from earlier work
[8] = test system: unstimulated mouse splenocytes; assay: transwell chemotaxis assay in response to CXCL12, unstimulated splenocytes; assay type: cell-based; settings: Mus musculus, Splenocyte, 4 h; read-out: inhibition of CXCL12-induced migration
Procedure: as §1, §2, §3, §4

[9] = test system: T1, PDE8A; settings: expressed forms of full length cDNAs for PDE8; cited from earlier work
T1 construct: other: expressed forms of full length cDNAs for PDE8

[10] = 45 minutes, dibutryl cAMP 500 μM, 8-bromo-cAMP 500 μM

OCCN(CCO)c1nc(N2CCCCC2)c2nc(N(CCO)CCO)nc(N3CCCCC3)c2n1 [Dipyridamole, 2,2′,2″,2′″-(4,8-di(piperidin-1-yl)pyrimido[5,4-d]pyrimidine-2,6-diyl)bis(azanetriyl)tetraethanol]
lipopolysaccharide-stimulated release of TNF-α [1]: inhibit | cAMP levels in bEnd.3 cells [2]: significantly increased | increase of cAMP levels in bEnd.3 cells ([2]; within 20 minutes): over 2 fold | inhibition at 100 µM [3]: 54% | reduction of ICAM-1 mRNA expression ([4]; 45 minutes, dibutryl cAMP 500 μM): 65% | increase of claudin-5 gene expression [4, 10]: 111% | reduction of CXCL12 gene expression [4, 10]: 69% | reduction of VCAM-1 gene expression [4, 10]: 60% | PDE4B expression in bEnd.3 cells ([4]; final 45 minutes of TNF-α): compensatory increase | expression of other PDE genes, including PDE8A, in bEnd.3 cells ([4]; final 45 minutes of TNF-α): not significantly altered | IC50 [5]: ~4.1 µM | IC50 [6]: ~6 µM | IC50 [7]: 4 to 9 µM | inhibition at 100 µM [8]: 55%

CC(C)Cn1c(=O)n(C)c(=O)c2[nH]cnc21 [IBMX, 3-isobutyl-1-methylxanthine]
cAMP levels in bEnd.3 cells [2]: significantly increased | inhibition at 300 µM [3]: 21% | sensitivity of Tyr748-to-phenylalanine mutant to inhibition [5]: restores sensitivity | sensitivity of PDE8A1 catalytic domain to inhibition [6]: insensitive | inhibition of expressed forms of PDE8 [9]: resistant | inhibition at 300 µM [8]: 57%
